Data taken from patent publication US7910579B2, “Benzoxazole derivatives” (Tohoku University, priority 2006, dated 2011).

Key:
[1] = target: T1, amyloid β protein in the brain section of an Alzheimer disease patient (Homo sapiens, UniProt P05067); assay: Staining test on a brain section of an Alzheimer disease patient: amyloid β protein; type: binding; conditions: for Binding to (staining of) amyloid β protein in the brain section of an Alzheimer disease patient: 100 μM solution in 50% ethanol, 10 minutes, paraffin brain section; for Specificity to amyloid β: statement in the description of formulae (II) to (VI)
T1 construct: from tissue; host or cells: paraffin-embedded temporal lobe and hippocampus of Alzheimer disease patients
Text: (§1) (1) Brain specimens at the temporal lobe and the hippocampus of patients to which a definitive diagnosis of Alzheimer disease had been given, and those of normal senile persons were used. The specimens were given by our coworker, Fukushimura Hospital, Longevity Medicine Institute, and we were given their consent of use of the specimens for our study purpose by the bereaved of the patients (Fukushimura Hospital Ethical Review Board Approval No. 20).
(§2) (2) The paraffin-embedded brain tissue was cut Into slices having a thickness of 6 μm or 8 μm, and extended and dried on a slide. The paraffin brain section was steeped for paraffin removal in xylene twice for 10 minutes, 100% ethanol twice for 5 minutes, 90% ethanol for 5 minutes and running water for 10 minutes in that order.
(§3) (3) For pretreatment prior to the staining treatment with a compound of the invention, the sections were steeped for autofluorescence removal with lipofuscin. First, the paraffin-removed sections were dipped in 0.25% KMnO4 solution for 20 minutes. These were washed with PBS, twice for 2 minutes, then dipped in 0.1% K2S2O5/oxalic acid solution for about 5 seconds, and then further washed with PBS, three times for 2 minutes.
(4) About 150 μl of a 100 μM solution of a compound of the invention dissolved in 50% ethanol was dropwise applied to the section and reacted for 10 minutes. After dipped five times in tap water, the section was entrapped with Fluor Save Reagent (Calbiochem), and analyzed through microscopy with a fluorescence microscope (Nikon, Eclipse 80i). The images were taken with a digital camera (Nikon Dxm 1200F or Photometrics' Cool SNAP ES).
(1) After paraffin removal, the sections were washed in distilled water, twice for 2 minutes. Then, using ImmunoPen, the tissue was marked with a surrounding line; about 150 μl of formic acid was dropwise applied to the section and statically left at room temperature for 5 minutes. The section was washed with tap water for 5 minutes, then dipped in cold PBS-Tween 20 for 2 minutes, and thereafter about 150 μl of 0.05% trypsin solution was dropwise applied to it and reacted at 37° C. for 15 minutes.
(2) In an ice bath, this was washed with cold PBS-Tween 20, twice for 5 minutes, and then 2 drops of blocking serum were applied to it and reacted at 37° C. for 30 minutes. Excess water was removed, and then about 150 μl of a specific antibody to amyloid β protein, 6F/3D (by DAKO, 1/50 dilution) was dropwise applied to it, and reacted at 37° C. for 1 hour.
(3) Further, this was washed with cold PBS-Tween 20, 5 times for 2 minutes, and then 2 drops of an anti-mouse IgG (H+L), goat, biotin-binding solution were applied to it and reacted at 37° C. for 1 hour. Then, this was washed with cold PBS-Tween 20, three times for 2 minutes, and 2 drops of an ABC solution (streptoavidin-biotin-peroxidase composite solution) were applied to it, and left statically as such for 30 minutes. Again this was washed with cold PBS-Tween 20, three times for 2 minutes, and then about 150 μl of a DAB solution (10 mg of DAB was dissolved in 20 ml of 0.05 mol/liter tris-HCl buffer, and just before use, 100 μl of 3% hydrogen peroxide water was added to it) was dropwise applied to it for sufficiently staining it. Then, this was washed with distilled water for 1 minute to stop the reaction, then entrapped and observed through microscopy.

[2] = tested on: neurofibrillary tangle in the brain section of an Alzheimer disease patient; assay: Staining test on a brain section of an Alzheimer disease patient: neurofibrillary tangle; type: binding, human; conditions: 100 μM solution in 50% ethanol, 10 minutes, paraffin brain section
Text: as §1, §2, §3
(4) About 150 μl of a 100 μM solution of a compound of the invention dissolved in 50% ethanol was dropwise applied to the section and reacted for 10 minutes. After dipped five times in tap water, the section was entrapped with Fluor Save Reagent (Calbiochem), and analyzed through microscopy with a fluorescence microscope (Nikon, Eclipse 80i). The images were taken with a digital camera (Nikon Dxm 1200F or Photometrics' Cool SNAP ES). […]

[3] = target: T2, Tg mouse intracerebral amyloid plaque (Homo sapiens, UniProt P05067); assay: Investigation of transgenic (Tg) mice with amyloid deposition in their brain (fluorescence microscopy of brain sections after intravenous administration); type: in vivo; conditions: APPswe2576/Tau JPL3 mouse, 4 mg/kg intravenous, 1 hour after administration
T2 construct: from tissue; host or cells: brain of Tg mice (Tg2576 or APPswe2576/Tau JNPL3) after intravenous dosing

Acute Toxicity Test = type: in vivo; conditions: Crj:CD1 male mice, tail vein, observed for 7 days
Protocol: The compounds of the invention were tested for their acute toxicity through intravenous administration thereof to mice. Four Crj:CD1 male mice formed one test group, and some test groups of those mice were used (the mean body weight of the mice of each group was from 31 to 32 g). A test compound was dissolved in a mixture of 1 N HCl, polyethylene glycol-400 and distilled water, or dissolved in DMSO, and then diluted with distilled water. This was administered to each mouse via its tail vein.

[4] = tested on: histidine-requiring Salmonella typhimurium TA100 and TA98 strains; assay: Mutagenicity Test (reverse mutation test); type: cell-based
Protocol: In view of their use, it is desirable that the compounds of the invention have no mutagenicity or have little mutagenicity to a level causing no problem. For investigating the gene mutagenesis of the compounds of the invention, herein carried out was a reverse mutation test with histidine-requiring Salmonella typhimurium TA100 and TA98 strains. Two tests were carried out. One is a test for dose determination test; and the other is for mutagenicity.
The test methods and the mutagenicity of the compounds of the invention are mentioned below. In the dose determination test, six doses of 0.160, 0.800, 4.00, 20.0, 100 and 500 μg/plate (common ratio 5) were tried.
As a result of the dose determination test, when the mutagenicity of the test compound was admitted, then the actual test for mutagenicity was carried out, using the dose capable of giving an accurate dose-reaction curve. When no mutagenicity of the test compound was admitted in the dose determination test and when the growth inhibition of the test cells was admitted therein, then the dose to present the growth inhibition was taken as the maximum dose; and when the growth inhibition was not admitted, then a dose of 5000 μg/plate was taken as the maximum dose. With that, the actual test for mutagenicity was carried out on the level of 6 doses (common ratio 2).
First, a test compound was dissolved or suspended in DMSO, then diluted in order to prepare test compound liquids having a varying concentration.
100 μl of a test compound liquid or a negative control (DMSO) solution was put into a sterilized test tube. Then, for the case in the absence of a metabolic activation system (−S9mix), 500 μl of 0.1 mol/liter sodium-phosphate buffer (pH 7.4) was added to it; and for the case in the presence of a metabolic activation system (+S9mix), 500 μl of S9mix was added to it.
Next, 100 μl of the test strain suspension that had been cultivated with shaking at 37° C. for 8 hours was added to it, and preincubated in a shaking thermostat at 37° C. for 20 minutes. After shaken, 2 ml of top agar was added to it, and the contents were mixed.
Next, the mixture was poured onto a minimal glucose agar plate medium (plate) and spread uniformly thereon, then the top agar was solidified, and the plate was transferred into a thermostat and incubated at 37° C. for 48 hours.
Then, the number of the colonies grown through reverse mutation was counted.
For counting it, […]. After area correction and miss-counting correction, the number of the colonies was computed. When the colony analyzer could not be used owing to the deposition of the test compound or the cell growth inhibition, then the number of the colonies was counted with the naked eye.
In case where the number of the colonies through reverse mutation increased two times or more that of the negative control and where the dose dependency or the reproducibility of the increase was admitted, then the tested sample was decided as positive. When the sample was is decided as positive, then the relative activity that indicates the relative comparative value of the intensity of the mutagenicity of the test compound was obtained according to the following formula: Relative Activity={(number of colonies per plate having the concentration)−(number of colonies per negative control plate)}/the value of concentration (mg/plate).

T1 sequence (P05067 672-713 limits assumed): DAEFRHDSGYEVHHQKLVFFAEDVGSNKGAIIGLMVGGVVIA
T2 sequence (P05067 672-713 limits assumed): as above

| SMILES | Binding to (staining of) amyloid β protein in the brain section of an Alzheimer disease patient [1] | Specificity to amyloid β [1] | Binding to (staining of) neurofibrillary tangle in the brain section of an Alzheimer disease patient [2] | Passage through the blood-brain barrier and binding to Tg mouse intracerebral amyloid plaque [3] | Maximum Permissible Dose (mg/kg, intravenous administration) (Acute Toxicity Test) | Relative activity (mutagenicity) ([4]; irrespective of the absence or presence of S9mix) | Relative Activity in the presence of S9Mix ([4]; reverse mutation test, +S9mix) | Relative Activity in the absence of S9Mix ([4]; reverse mutation test, -S9mix) |
| --- | --- | --- | --- | --- | --- | --- | --- | --- |
| CN1C=CC(=C/C=C2\C=Nc3ccccc32)C=C1 [THK-185, 3-[2-(1-methyl-1H-pyridin-4-ylidene)-ethylidene]-3H-indole] | bound to the amyloid β protein | high specificity to amyloid β | bound to the amyloid β protein and the neurofibrillary tangle |  |  |  |  |  |
| CN1C=CC(=CC=C2C=CC(=O)C=C2)C=C1 [THK-317, 4-[2-(1-methyl-1H-pyridin-4-ylidene)-ethylidene]-cyclohexa-2,5-dienone] | bound to the amyloid β protein | high specificity to amyloid β | bound to the amyloid β protein and the neurofibrillary tangle |  |  |  |  |  |
| CN(C)c1ccc(-c2nnc(-c3sc4ccccc4c3Cl)o2)cc1 [THK-258, [4-[5-(3-chloro-benzo[b]thiophen-2-yl)-[1,3,4]oxadiazol-2-yl]-phenyl]-dimethylamine] | bound to the amyloid β protein | high specificity to amyloid β | bound to the amyloid β protein and the neurofibrillary tangle |  |  |  |  |  |
| OCC(CF)COc1ccc2nc(/C=C/c3cnc(N4CCOCC4)s3)oc2c1 (stereo not shown) [THK-727, 2-fluoromethyl-3-[2-[2-(2-morpholin-4-yl-thiazol-5-yl)-vinyl]-benzoxazol-6-yloxy]-propan-1-ol] | white space arrow indicates amyloid β protein |  | white space arrow head indicates neurofibrillary tangle | passed through the blood-brain barrier, and bound to the Tg mouse intracerebral amyloid plaque | ≧10 mg/kg | minus | minus | minus |
